Like-named read-outs stand apart in the source and are kept apart here.
Tested on: HIV
Assay: HIV (MT4 assay), in vitro antiviral activity
Type: cell-based

| Molecule | IC50 | IC50 (Human immunodeficiency virus 1) |
| --- | --- | --- |
| 4-fluorodibenzothiazepin-11(10H)-one-5,5-dioxide [15(iv)] | 1.8 µM |  |
| O=C1Nc2ccccc2Sc2c1cccc2C(F)(F)F [Example 7, 4-Trifluoromethyl-10,11-dihydrodibenzo[b,f][1,4]thiazepin-11-one] |  | 2.5 µM |
| O=C1Nc2ccccc2S(=O)(=O)c2ccccc21 [Example 5, 10,11-Dihydrodibenzo[b,f][1,4]thiazepin-11-one-5,5-dioxide] |  | 13 µM |
| O=C1Nc2ccccc2Sc2c(F)cccc21 [14(iv), 4-Fluoro-10,11-dihydrobenzo[b,f][1,4]thiazepin-11-one] |  | 1.1 µM |
| CSc1cccc2c1Sc1ccccc1NC2=O [Example 19, 4-Thiomethyl-10,11-dihydrodibenzo[b,f][1,4]thiazepin-11-one] |  | 2.3 µM |
| COc1ccc2c(c1)S(=O)(=O)c1ccccc1C(=O)N2 [Example 22, 7-Methoxy-10,11-dihydrodibenzo[b,f][1,4]thiazepin-11-one-5,5-dioxide] |  | 12.8 µM |
| CN1C(=O)c2cccc(C(F)(F)F)c2Sc2ccccc21 [Example 10, 10-Methyl-4-trifluoromethyl-10,11-dihydrodibenzo[b,f][1,4]thiazepin-11-one] |  | 2.8 µM |
| CN1C(=O)c2cccc(F)c2Sc2ccccc21 [17(i), 4-Fluoro-10-methyl-10,11-dihydrobenzo[b,f][1,4] thiazepin-11-one] |  | 0.7 µM |
